{
  "source": "patent US10597388B2",
  "about": "“Pyridazinone herbicides” (FMC CORPORATION, priority 2014, dated 2020)",
  "format_in_all_cases": "in vivo",
  "key": {"[1]": {"test_system": "foxtail, giant (giant foxtail, Setaria faberii)", "test": "Test A greenhouse herbicide test, pre- and postemergence", "details": "Setaria faberi, 240 h, 1000 g ai/ha, 0 to 100 scale", "method_in_brief": "(§1)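 Seeds sown in loam–sand blend got a preemergence directed soil spray of compound in non-phytotoxic solvent with surfactant. Postemergence treatment was given at 2–10 cm, one- to two-leaf stage. After ~10 d in greenhouse, injury was rated visually vs untreated controls, 0 (no effect) to 100 (complete control).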"}, "[2]": {"test_system": "wheat (Triticum aestivum)", "test": "Test A greenhouse herbicide test, pre- and postemergence", "details": "Triticum aestivum, 240 h, 1000 g ai/ha, 0 to 100 scale", "method_in_brief": "as §1"}, "corn (Zea mays) [3]": {"test_system": "corn (Zea mays)", "test": "Test A greenhouse herbicide test, pre- and postemergence", "details": "Zea mays, 240 h, 1000 g ai/ha, 0 to 100 scale", "method_in_brief": "as §1"}, "[4]": {"test_system": "pigweed (Amaranthus retroflexus)", "test": "Test C greenhouse herbicide test, pre- and postemergence", "method_in_brief": "(§2)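 Each species was treated both before emergence, in a loam–sand soil mix, and after emergence, as 1- to 4-leaf seedlings in peat-based potting medium. Plants stayed in the greenhouse 13 to 15 d, then were scored from 0 (no effect) to 100 (complete control) relative to controls.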"}, "[5]": {"test_system": "nutsedge, yellow (yellow nutsedge, Cyperus esculentus)", "test": "Test C greenhouse herbicide test, pre- and postemergence", "method_in_brief": "as §2"}, "corn (Zea mays) [6]": {"test_system": "corn (Zea mays)", "test": "Test C greenhouse herbicide test, pre- and postemergence", "method_in_brief": "as §2"}, "[7]": {"test_system": "velvetleaf (Abutilon theophrasti)", "test": "Test C greenhouse herbicide test, pre- and postemergence", "method_in_brief": "as §2"}, "[8]": {"test_system": "blackgrass (Alopecurus myosuroides)", "test": "Test C greenhouse herbicide test, pre- and postemergence", "method_in_brief": "as §2"}, "[9]": {"test_system": "waterhemp (common waterhemp, Amaranthus rudis)", "test": "Test C greenhouse herbicide test, pre- and postemergence", "method_in_brief": "as §2"}, "soybean (Glycine max)": {"test_system": "soybean (Glycine max)", "test": "Test C greenhouse herbicide test, pre- and postemergence", "method_in_brief": "as §2"}, "[10]": {"details": "Postemergence, 31 g ai/ha, 0 to 100 scale (0 no effect, 100 complete control)"}, "[11]": {"details": "Postemergence, 125 g ai/ha, scale 0 to 100, 0 is no effect, 100 is complete control"}, "[12]": {"details": "Postemergence, 250 g ai/ha, scale 0 to 100, 0 no effect, 100 complete control, 13 to 15 d"}, "[13]": {"details": "Preemergence, 31 g ai/ha, scale 0 to 100, 0 is no effect, 100 is complete control"}, "[14]": {"details": "Preemergence, 62 g ai/ha, scale 0 to 100, 0 is no effect, 100 is complete control"}, "[15]": {"details": "Preemergence, 125 g ai/ha, scale 0 to 100, 0 is no effect, 100 is complete control"}, "[16]": {"details": "Preemergence, 250 g ai/ha, scale 0 to 100, 0 no effect, 100 complete control"}, "[17]": {"details": "postemergence, 62 g ai/ha, scale 0 to 100, 0 no effect, 100 complete control"}},
  "note": "Where two headings read alike, the source gives them in different places.",
  "data": [
    {"smiles": "Cc1nn(C)c(=O)c(-c2cccc3ccccc23)c1O", "note": "[Compound 11, 5-hydroxy-2,6-dimethyl-4-(1-naphthalenyl)-3(2H)-pyridazinone]", "values": [
      {"measurement": "pest or weed control at 1000 g/ha", "setting": "[1]; post-emergence, Postemergence, 0 is no effect, 100 is complete control, read-out: Foxtail, Giant plant response rating", "value": 90, "unit": "%"},
      {"measurement": "pest or weed control at 1000 g/ha", "setting": "[1]; pre-emergence, Preemergence, 0 no effect, 100 complete control, read-out: Plant response rating, Foxtail, Giant", "value": 90, "unit": "%"},
      {"measurement": "plant injury at 1000 g/ha", "setting": "[2]; post-emergence, Postemergence, 0 is no effect, 100 is complete control, read-out: Wheat plant response rating", "value": 60, "unit": "%"},
      {"measurement": "plant injury at 1000 g/ha", "setting": "[2]; pre-emergence, Preemergence, 0 no effect, 100 complete control, read-out: Plant response rating, Wheat", "value": 50, "unit": "%"},
      {"measurement": "plant injury at 1000 g/ha", "setting": "corn (Zea mays) [3]; post-emergence, Postemergence, 0 is no effect, 100 is complete control, read-out: Corn plant response rating", "value": 50, "unit": "%"},
      {"measurement": "Corn plant response rating (crop injury, 0 = no effect, 100 = complete kill) at 1000 g/ha", "setting": "corn (Zea mays) [3]; pre-emergence, Preemergence, 0 no effect, 100 complete control", "value": 20, "unit": "%"},
      {"measurement": "Pigweed plant response rating", "setting": "[4]; [10]", "value": 50},
      {"measurement": "Plant response rating, Pigweed", "setting": "[4]; [11]", "value": 90},
      {"measurement": "Plant response rating, Pigweed", "setting": "[4]; [12]", "value": 95},
      {"measurement": "Plant response rating, Pigweed", "setting": "[4]; [13]", "value": 0},
      {"measurement": "Plant response rating, Pigweed", "setting": "[4]; [14]", "value": 100},
      {"measurement": "Plant response rating, Pigweed", "setting": "[4]; [15]", "value": 100},
      {"measurement": "Pigweed plant response rating", "setting": "[4]; [16]", "value": 100},
      {"measurement": "Pigweed plant response rating", "setting": "[4]; [17]", "value": 90},
      {"measurement": "Nutsedge, Yellow plant response rating", "setting": "[5]; [10]", "value": 5},
      {"measurement": "Plant response rating, Nutsedge, Yellow", "setting": "[5]; [11]", "value": 30},
      {"measurement": "Plant response rating, Nutsedge, Yellow", "setting": "[5]; [12]", "value": 45},
      {"measurement": "Plant response rating, Nutsedge, Yellow", "setting": "[5]; [13]", "value": 0},
      {"measurement": "Plant response rating, Nutsedge, Yellow", "setting": "[5]; [14]", "value": 5},
      {"measurement": "Plant response rating, Nutsedge, Yellow", "setting": "[5]; [15]", "value": 10},
      {"measurement": "Nutsedge, Yellow plant response rating", "setting": "[5]; [16]", "value": 30},
      {"measurement": "Nutsedge, Yellow plant response rating", "setting": "[5]; [17]", "value": 15},
      {"measurement": "Corn plant response rating", "setting": "corn (Zea mays) [6]; [10]", "value": 0},
      {"measurement": "Plant response rating, Corn", "setting": "corn (Zea mays) [6]; [11]", "value": 0},
      {"measurement": "Plant response rating, Corn", "setting": "corn (Zea mays) [6]; [12]", "value": 0},
      {"measurement": "Plant response rating, Corn", "setting": "corn (Zea mays) [6]; [13]", "value": 0},
      {"measurement": "Plant response rating, Corn", "setting": "corn (Zea mays) [6]; [14]", "value": 0},
      {"measurement": "Plant response rating, Corn", "setting": "corn (Zea mays) [6]; [15]", "value": 0},
      {"measurement": "Corn plant response rating", "setting": "corn (Zea mays) [6]; [16]", "value": 0},
      {"measurement": "Corn plant response rating", "setting": "corn (Zea mays) [6]; [17]", "value": 0},
      {"measurement": "Velvetleaf plant response rating", "setting": "[7]; [10]", "value": 0},
      {"measurement": "Plant response rating, Velvetleaf", "setting": "[7]; [11]", "value": 45},
      {"measurement": "Plant response rating, Velvetleaf", "setting": "[7]; [12]", "value": 80},
      {"measurement": "Plant response rating, Velvetleaf", "setting": "[7]; [14]", "value": 10},
      {"measurement": "Plant response rating, Velvetleaf", "setting": "[7]; [15]", "value": 90},
      {"measurement": "Velvetleaf plant response rating", "setting": "[7]; [16]", "value": 90},
      {"measurement": "Velvetleaf plant response rating", "setting": "[7]; [17]", "value": 5},
      {"measurement": "Blackgrass plant response rating", "setting": "[8]; [10]", "value": 5},
      {"measurement": "Plant response rating, Blackgrass", "setting": "[8]; [11]", "value": 30},
      {"measurement": "Plant response rating, Blackgrass", "setting": "[8]; [12]", "value": 75},
      {"measurement": "Plant response rating, Blackgrass", "setting": "[8]; [13]", "value": 35},
      {"measurement": "Plant response rating, Blackgrass", "setting": "[8]; [14]", "value": 40},
      {"measurement": "Plant response rating, Blackgrass", "setting": "[8]; [15]", "value": 50},
      {"measurement": "Blackgrass plant response rating", "setting": "[8]; [16]", "value": 85},
      {"measurement": "Blackgrass plant response rating", "setting": "[8]; [17]", "value": 15},
      {"measurement": "Waterhemp plant response rating", "setting": "[9]; [10]", "value": 80},
      {"measurement": "Plant response rating, Waterhemp", "setting": "[9]; [11]", "value": 95},
      {"measurement": "Plant response rating, Waterhemp", "setting": "[9]; [12]", "value": 95},
      {"measurement": "Plant response rating, Waterhemp", "setting": "[9]; [14]", "value": 100},
      {"measurement": "Plant response rating, Waterhemp", "setting": "[9]; [15]", "value": 100},
      {"measurement": "Waterhemp plant response rating", "setting": "[9]; [16]", "value": 100},
      {"measurement": "Waterhemp plant response rating", "setting": "[9]; [17]", "value": 80},
      {"measurement": "Soybean plant response rating", "setting": "soybean (Glycine max); [10]", "value": 0},
      {"measurement": "Plant response rating, Soybean", "setting": "soybean (Glycine max); [11]", "value": 0},
      {"measurement": "Plant response rating, Soybean", "setting": "soybean (Glycine max); [12]", "value": 0},
      {"measurement": "Plant response rating, Soybean", "setting": "soybean (Glycine max); [14]", "value": 0},
      {"measurement": "Plant response rating, Soybean", "setting": "soybean (Glycine max); [15]", "value": 0},
      {"measurement": "Soybean plant response rating", "setting": "soybean (Glycine max); [16]", "value": 0},
      {"measurement": "Soybean plant response rating", "setting": "soybean (Glycine max); [17]", "value": 0}
    ]}
  ]
}
